“Also recorded” adds a separate entry of the source.
Tests used:
[1] = tested on: ECC-1 endometrial cancer cells; experiment: ECC-1 cell proliferation assay ([3H]thymidine incorporation into DNA); assay type: cell-based, human; details: for inhibition of estradiol-induced cell proliferation / inhibition of genistein-induced cell proliferation: FIG. 4
Procedure: The human endometrial cancer (estrogen dependent) cell line ECC-1 was developed by Dr. […] University, PA, U.S.A, and generously provided to us by Dr. R. Oregan, Norwestern University, Chicago, Ill., U.S.A. Human mammary cancer cell lines MCF-7 (estrogen dependent) and MDA-231 (hormone independent) were obtained from the American Type Culture Collection (Rockville, Md., U.S.A.). Cells were cultured in DMEM containing penicillin (100 U/ml), streptomycin (0.1 mg/ml)) nystatin (12.5 μg/ml), insulin (0.6 μg/ml), and 10% FCS. Cells were stripped of endogenous steroids according to the procedure of Vignon et al. (1987, Biochem. Biophys. Res. Comm., 146:1502-8) by sucessive passages in medium without phenol red containing 10% and then 3% of charcoal-stripped FCS. Cells were seeded into 96 multiwell plates (5,000 cells per well) in DMEM containing 3% of charcoal-stripped FCS. After one day the medium was changed to one containing the solubilized carotenoid or THF alone. The medium was changed daily to ensure a continuous supply of carotenoid. After incubation, the number of cells and the rate of cell proliferation were estimated by the incorporation of [^3H]thymidine incorporation into cellular DNA, as described in U.S. Pat. No. 5,827,900. Cell growth was also measured by direct cell counting with a Coulter counter after trypsinization and dilution in Isotone-II (Coulter Electronics, Luton, England). A good correlation was found between the two methods. ECC-1 cells were incubated with increasing concentrations of the isoflavones genistein and daidzein, the two primary isoflavones in soy products, and with soy extract. Cell proliferation after three days was measured by [^3H]thymidine incorporation into DNA (FIG. 1, panel A). […] ECC-1 cells were also incubated with a single high concentration (40 μM) of each of genistein, daidzein and soy extract and cell proliferation was assayed daily over the course of three days.

[2] = tested on: estrogen receptor-positive human breast cancer cell lines; details: approximately 0.1 to 10 μM; not in estrogen receptor negative lines; cited from earlier work
[3] = tested on: MCF-7 mammary cancer cells (estrogen dependent); experiment: MCF-7 cell proliferation assay ([3H]thymidine incorporation); assay type: cell-based, human; details: for inhibition of phytoestrogen-induced cell proliferation: genistein 4 μM
Procedure: (§1) The human endometrial cancer (estrogen dependent) cell line ECC-1 was developed by Dr. P. G. Satyaswaroop, Pennslyvania State University, PA, U.S.A, and generously provided to us by Dr. R. Oregan, Norwestern University, Chicago, Ill., U.S.A. Human mammary cancer cell lines MCF-7 (estrogen dependent) and MDA-231 (hormone independent) were obtained from the American Type Culture Collection (Rockville, Md., U.S.A.).
(§2) Cells were cultured in DMEM containing penicillin (100 U/ml), streptomycin (0.1 mg/ml)) nystatin (12.5 μg/ml), insulin (0.6 μg/ml), and 10% FCS. Cells were stripped of endogenous steroids according to the procedure of Vignon et al. (1987, Biochem. Biophys. Res. Comm., 146:1502-8) by sucessive passages in medium without phenol red containing 10% and then 3% of charcoal-stripped FCS. Cells were seeded into 96 multiwell plates (5,000 cells per well) in DMEM containing 3% of charcoal-stripped FCS. After one day the medium was changed to one containing the solubilized carotenoid or THF alone. The medium was changed daily to ensure a continuous supply of carotenoid.
After incubation, the number of cells and the rate of cell proliferation were estimated by the incorporation of [^3H]thymidine incorporation into cellular DNA, as described in U.S. Pat. No. 5,827,900. Cell growth was also measured by direct cell counting with a Coulter counter after trypsinization and dilution in Isotone-II (Coulter Electronics, Luton, England).
The comparative effects of estradiol and genistein supplementation on the proliferation of the hormone-dependent cell lines MCF-7 mammary cancer and ECC-1 endometrial cancer were examined (FIG. 2).
MCF-7 mammary cancer cells were stimulated by genistein (4 μM) and test cultures were additionally supplemented with lycopene or phytoene or a combination of both, at either physiological concentrations (FIG. 6 panel A) or at about one order of magnitude greater than the physiological concentrations (FIG. 6 panel B).

[4] = tested on: MDA-231 mammary cancer cells (hormone independent); experiment: MDA-231 cell proliferation assay ([3H]thymidine incorporation); assay type: cell-based, human; details: IGF-1 30 nM
Procedure: as §1, §2
After incubation, the number of cells and the rate of cell proliferation were estimated by the incorporation of [^3H]thymidine incorporation into cellular DNA, as described in U.S. Pat. No. 5,827,900. Cell growth was also measured by direct cell counting with a Coulter counter after trypsinization and dilution in Isotone-II (Coulter Electronics, Luton, England). A good correlation was found between the two methods.

[5] = 40 μM, after one day of incubation, FIG. 1 panel B
[6] = 0.4 and 4 μM, three days, FIG. 1 panel A
[7] = higher, non-physiological concentrations (≧10 μM), three days, FIG. 1 panel A
[8] = carotenoids at high, non-physiological concentrations (about one order of magnitude above physiological), FIG. 6 panel B
[9] = carotenoids at physiological concentrations, FIG. 6 panel A
[10] = lycopene 3 to 5 μM, three days, FIG. 2

## CC1=C(/C=C/C(C)=C/C=C/C(C)=C/C=C/C=C(C)/C=C/C=C(C)/C=C/C2=C(C)C(=O)[C@@H](O)CC2(C)C)C(C)(C)C[C@H](O)C1=O [astaxanthin]
[1]; estradiol 10 nM
  inhibition of estradiol-induced cell proliferation: effectively inhibited
[1]; genistein 1 μM
  inhibition of genistein-induced cell proliferation: effective inhibitors; also recorded: effectively inhibited

## CC1=C(/C=C/C(C)=C/C=C/C(C)=C/C=C/C=C(C)/C=C/C=C(C)/C=C/C2=C(C)CCCC2(C)C)C(C)(C)CCC1 [beta-carotene]
[1]; estradiol 10 nM
  inhibition of estradiol-induced cell proliferation: effectively inhibited
[1]; genistein 1 μM
  inhibition of genistein-induced cell proliferation: effective inhibitors; also recorded: effectively inhibited

## COc1ccc(-c2coc3cc(O)cc(O)c3c2=O)cc1 [biochanin A]
[2]
  effect on cell proliferation: induce cell proliferation

## O=c1oc2cc(O)ccc2c2oc3cc(O)ccc3c12 [counestrol]
[2]
  effect on cell proliferation: induce cell proliferation

## O=c1c(-c2ccc(O)cc2)coc2cc(O)ccc12 [daidzein, reference compound]
[1]; [5]
  effect on cell proliferation: significantly increases cell proliferation; also recorded: stimulated cell proliferation
[1]; [6]
  effect on cell proliferation: significant increase in cell proliferation rate; also recorded: stimulated cell proliferation
[1]; [7]
  effect on cell proliferation: only stimulatory

## O=c1c(-c2ccc(O)cc2)coc2cc(O)cc(O)c12 [genistein, reference compound]
[3]; genistein about 0.4 to 4 μM plus IGF-1 30 nM, compared with genistein alone, FIG. 3 panel A
  stimulatory effect of genistein in the presence of IGF-1: significantly increases the cell proliferation rate; also recorded: further augmented
[3]; genistein increasing concentrations, estradiol 1 and 10 nM, FIG. 2
  effect of hormone alone on proliferation: biphasic effects on proliferation
[1]; [5]
  effect on cell proliferation: significantly increases cell proliferation; also recorded: stimulated cell proliferation
[1]; 40 μM, second day in culture, FIG. 1 panel B
  effect on cell proliferation: inhibitory effects
[1]; [6]
  effect on cell proliferation: significant increase in cell proliferation rate
[1]; 0.4 and 4 μM, three days, FIG. 1 panel A, listed as Genistein
  effect on cell proliferation: stimulated cell proliferation
[1]; genistein increasing concentrations, estradiol 1 and 10 nM, FIG. 1/2
  effect of hormone alone on proliferation: biphasic effects on proliferation
[1]; [7]
  effect on cell proliferation: inhibited cell proliferation
[2]
  effect on cell proliferation: induce cell proliferation

## O=c1c(O)c(-c2ccc(O)cc2)oc2cc(O)cc(O)c12 [kaempferl]
[2]
  effect on cell proliferation: induce cell proliferation

## O=c1cc(-c2ccc(O)c(O)c2)oc2cc(O)cc(O)c12 [luiolin]
[2]
  effect on cell proliferation: induce cell proliferation

## CC(C)=CCC/C(C)=C/C=C/C(C)=C/C=C/C(C)=C/C=C/C=C(C)/C=C/C=C(C)/C=C/C=C(\C)CCC=C(C)C [lycopene]
[4]; lycopene 3 to 5 μM, FIG. 3
  cell proliferation relative to controls: reduced to levels less than that of controls
  effect on IGF stimulation of proliferation: inhibits IGF stimulation
[3]; [8]
  inhibition of phytoestrogen-induced cell proliferation: effective in significantly inhibiting
[3]; [9]
  inhibition of phytoestrogen-induced cell proliferation: only marginally effective
[3]; lycopene 3 to 5 μM, IGF-1 30 nM, FIG. 3
  effect on IGF stimulation of proliferation: inhibits IGF stimulation
[3]; lycopene 3 to 5 μM, genistein 0.4 to 4 μM, IGF-1 30 nM, FIG. 3 panel A
  effect on cell proliferation stimulated by combined IGF-1 and genistein: inhibits the cell proliferation
[3]; [10]
  effect on basal growth: significantly inhibited
  effect on estrogen-induced (genistein or estradiol) growth: substantially inhibited; also recorded: significantly inhibited
[1]; estradiol 10 nM
  inhibition of estradiol-induced cell proliferation: effectively inhibited
[1]; estradiol 10 nM, various lycopene concentrations (lowest 0.9 μM), FIG. 5
  inhibition of estradiol-induced cell proliferation, dose dependence: all lycopene concentrations tested were effective in inhibiting
[1]; genistein 1 μM
  inhibition of genistein-induced cell proliferation: effective inhibitors; also recorded: effectively inhibited
[1]; genistein 1 μM, various lycopene concentrations (lowest 0.9 μM), FIG. 5
  inhibition of genistein-induced cell proliferation, dose dependence: all lycopene concentrations tested were effective in inhibiting
[1]; [10]
  effect on basal growth: significantly inhibited
  effect on estrogen-induced (genistein or estradiol) growth: substantially inhibited; also recorded: significantly inhibited

## CC(C)=CCC/C(C)=C/CC/C(C)=C/CC/C(C)=C/C=C/C=C(\C)CC/C=C(\C)CC/C=C(\C)CCC=C(C)C [phytoene]
[3]; [8]
  inhibition of phytoestrogen-induced cell proliferation: effective in significantly inhibiting
[3]; [9]
  inhibition of phytoestrogen-induced cell proliferation: not effective
[1]; genistein 1 μM
  inhibition of genistein-induced cell proliferation: effective inhibitors

## IGF-1: Human recombinant IGF-1 purchased from GroPep
[4]; FIG. 3 panel B
  effect on cell growth: significantly stimulates cell growth
[3]; IGF-1 30 nM, FIG. 3 panel A
  effect on cell growth: significantly stimulates cell growth

From patent US8669293B2, “Method and compositions for preventing hormone induced adverse effects” (Lycored Ltd., priority 2000, dated 2014)
